Results on 5 compounds are retold here after patent US9645128B2, “Substituted imidazo[1,2-A]pyrazines for measuring a transcription activity” (JNC CORPORATION, priority 2009, dated 2017).

In data set [1] the target is T1, 19 kDa protein of Oplophorus luciferase (Oplophorus gracilirostris, UniProt Q9GV45).
T1 construct: made in house
As to the kind of experiment: Substrate specificity, luminescence activity and emission spectra of the 19 kDa protein of Oplophorus luciferase. To be noted: for Maximum emission wavelength λmax (nm) / Luminescence activity and/or capacity compared to known h-CTZ / Luminescence capacity 10 secs. (%) / Luminescence activity Imax (%): Oplophorus luciferase; for Maximum emission wavelength λmax (nm): 22 to 25° C.; for Luminescence activity and/or capacity compared to known h-CTZ / Quality as luminescence substrate for Oplophorus luciferase: TABLE 2; for Luminescence capacity 10 secs. (%): emission integrated for 10 seconds; for Luminescence capacity 10 secs. (%) / Luminescence activity Imax (%): coelenterazine = 100.0. It counts as biochemical, Oplophorus gracilorostris.

The target in the next data set is T2, Renilla luciferase (Renilla reniformis, UniProt P27652).
T2 construct: made in house
T2 sequence (P27652 1-311): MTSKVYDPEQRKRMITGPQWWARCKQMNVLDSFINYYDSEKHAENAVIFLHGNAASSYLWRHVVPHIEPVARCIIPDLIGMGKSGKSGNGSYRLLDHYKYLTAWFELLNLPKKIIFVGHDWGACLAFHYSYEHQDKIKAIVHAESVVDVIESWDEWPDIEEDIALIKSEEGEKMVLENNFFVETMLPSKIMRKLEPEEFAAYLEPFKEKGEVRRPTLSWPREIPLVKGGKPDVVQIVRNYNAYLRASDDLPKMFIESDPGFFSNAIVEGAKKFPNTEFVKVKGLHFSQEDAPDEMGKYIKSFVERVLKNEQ
Briefly: Substrate specificity, luminescence activity and emission spectra of Renilla luciferase. To be noted: for Maximum emission wavelength λmax (nm) / Luminescence activity Imax (%) / Luminescence capacity 10 secs. (%): Renilla luciferase; for Maximum emission wavelength λmax (nm): 22 to 25° C.; for Luminescence activity Imax (%) / Luminescence capacity 10 secs. (%): coelenterazine = 100.0; for Ability to act as substrate for Renilla luciferase: TABLE 4. It counts as biochemical. From the text: Res. Commun. (1997) 233: 349-353, which was provided for use.

The target of data set [2] is T3, recombinant apoaequorin (Aequorea victoria, UniProt P07164). As to the kind of experiment: Luminescence patterns and half decay time of semi-synthetic aequorins. It counts as biochemical. More on the design: purchased Chisso Corporation. The following applies: for Half decay time sec.: semi-synthetic aequorin, time to reach half of the maximum luminescence intensity. How it is done:
The dilution was dispensed into a 96-well microplate (Nunc #236108) in 5 μl/well. […] The luminescence patterns for 60 seconds were measured to determine the half decay time of luminescence (time period to reach the half of the maximum luminescence intensity).

Data set [3] has as its target T3, recombinant apoaequorin. Briefly: Calcium standard curve with semi-synthetic aequorins. It counts as biochemical. More on the design: purchased Chisso Corporation. To be noted: Imax versus 10^-3 M to 10^-8 M calcium. The protocol: The dilution series was prepared by the serial process above to prepare standard calcium solution of 10^−3 M to 10^−8 M.
The semi-synthetic aequorin obtained was concentrated using Amicon Ultra-4 (manufactured by Millipore, molecular weight cut off, 10.000).
This semi-synthetic aequorin solution (2.5 mg/ml) was diluted with 20 mM Tris-HCl (pH 7.6) containing 0.1% BSA (manufactured by Sigma), 0.01 mM EDTA and 150 mM NaCl.
The calcium standard solution prepared as described above was dispensed into a 96-well microplate (Nunc #236108) in 50 μl/well, and the semi-synthetic aequorin solution diluted was injected in […]. The luminescence intensity was measured for 60 seconds using a luminescence plate reader Centro LB960 (manufactured by Berthold) and expressed in terms of the maximum luminescence intensity (Imax). The luminescence intensity was measured for each semi-synthetic aequorin in the same fashion. Based on the maximum luminescence intensity (Imax) obtained, the calcium standard curve for each semi-synthetic aequorin was prepared.

For data set [4], the target named is T3, recombinant apoaequorin. Briefly: Emission spectra of semi-synthetic aequorins by addition of calcium ions. The following applies: for Emission spectra of semi-synthetic aequorins compared with known analogs (FIG. 3): compared to h-CTZ and i-CTZ; for Maximum emission wavelength λmax (nm): semi-synthetic aequorin, 22 to 25° C.
Protocol: In a quartz cell with an optical path length of 10 mm, 1 ml of 50 mM Tris-HCl (pH 7.6) containing 1 mM EDTA and 100 μl (100 μg protein) of a solution of the regenerated semi-synthetic aequorin were charged and they were mixed. Subsequently, 100 μl of 50 mM Tris-HCl (pH 7.6) containing 0.1 ml of 10 mM calcium chloride solution was added to the mixture to trigger the luminescence reaction. The spectra were measured on a spectrofluorimeter (FP-6500, manufactured by JASCO Corporation) with the excitation source turned off. The measurement conditions used were as follows: band width, 20 nm; response, 0.5 second and scan speed, 2000 nm/min at 22 to 25° C.
In the next data set the test system is Gaussia luciferase. As to the kind of experiment: Substrate specificity, luminescence activity and emission spectra of Gaussia luciferase. To be noted: for Luminescence activity Imax (%) / Luminescence capacity 10 secs. (%): Gaussia luciferase, coelenterazine = 100.0.
For data set [5], the target named is T3, recombinant apoaequorin. As to the kind of experiment: Production of semi-synthetic aequorins and measurement of luminescence activity (Imax, luminescence capacity). The following applies: regeneration 0.5 to 18 hours at 4° C.
Protocol: In order to confirm the regeneration time and regeneration efficiency from apoaequorin to the semi-synthetic aequorin, the luminescence activity was assayed at the respective points of the regeneration process (at the respective points of 0.5, 1, 1.5, 2, 3 and 18 hours from the start of regeneration).
Specifically, the luminescence activity described above was measured as follows. The luminescence reaction was started by adding 100 μl of 50 mM Tris-HCl (pH 7.6) containing 50 mM calcium chloride solution to 2 μl of a solution of the semi-synthetic aequorin at each regeneration process. The luminescence activity was measured for 10 seconds with a luminometer Luminescencer-PSN AB2200 (manufactured by Atto Co., Ltd.). The measured values were represented as the maximum intensity (Imax) of luminescence. The emission for 60 seconds was integrated, which was made a luminescence capacity.

T3 sequence (P07164 other isoform, or with tags, fused parts or gaps with the stated changes): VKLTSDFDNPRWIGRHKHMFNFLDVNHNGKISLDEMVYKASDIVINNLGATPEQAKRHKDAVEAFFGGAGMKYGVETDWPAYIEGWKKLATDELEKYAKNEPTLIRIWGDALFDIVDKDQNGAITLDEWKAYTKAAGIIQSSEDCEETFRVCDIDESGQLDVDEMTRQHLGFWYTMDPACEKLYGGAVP
T1 sequence (Q9GV45 28-196): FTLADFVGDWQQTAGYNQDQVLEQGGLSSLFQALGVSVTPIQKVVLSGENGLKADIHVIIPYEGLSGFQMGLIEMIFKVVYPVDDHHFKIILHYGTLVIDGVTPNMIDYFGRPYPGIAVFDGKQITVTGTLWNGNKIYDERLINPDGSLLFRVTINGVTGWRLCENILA
Protocol for Gaussia luciferase: The luminescence activity was measured for 10 seconds using a luminometer Luminescencer-PSN AB2200 (manufactured by Atto Co., Ltd.). The luminescence activity was measured 3 times and expressed as the maximum intensity (Imax) of luminescence.

For `Cc1cccc(Cc2nc3c(Cc4ccccc4)[nH]c(-c4ccc(O)cc4)cn-3c2=O)c1` [3me-CTZ, 3me-coelenterazine], the melting point was 142 to 145 °C (dec.). Further, in data set [1], the “Maximum emission wavelength λmax (nm)” value came out at 455.5 nm, the “Luminescence activity and/or capacity compared to known h-CTZ” value is “high luminescence activity and/or luminescence capacity”, the “Luminescence capacity 10 secs. (%)” value worked out at 122.8% and the “Luminescence activity Imax (%)” value turned out to be 80.0%. For the same compound, the “Quality as luminescence substrate for Oplophorus luciferase” value (from here on “Quality … for Oplophorus luciferase”) in data set [1] is listed as “relatively good luminescence substrates”. At Renilla luciferase, the “Maximum emission wavelength λmax (nm)” value stood at 471.5 nm, the “Luminescence activity Imax (%)” value is 12.7% and the “Luminescence capacity 10 secs. (%)” value stood at 13.1%. Also, the “Half decay time sec.” value on recombinant apoaequorin [2] turned out to be 0.51 s. Further, the “Calcium standard curve with semi-synthetic aequorin (FIG. 4)” value (from here on “Calcium standard curve”) at recombinant apoaequorin [3] is listed as “calcium standard curves can be prepared”. On recombinant apoaequorin [4], the “Emission spectra of semi-synthetic aequorins compared with known analogs (FIG. 3)” value is reported as “exhibit different emission spectra from those of known coelenterazine analogs” and the “Maximum emission wavelength λmax (nm)” value came out at 466.0 nm. For the same compound, in the data set on Gaussia luciferase, the “Luminescence activity Imax (%)” value came out at 2.6% and the “Luminescence capacity 10 secs. (%)” value is 2.1%. Also, on recombinant apoaequorin [5], the “Ability to act as luminescence substrate for semi-synthetic aequorins (FIG. 1)” value (“Ability to act as luminescence substrate” for short) is “can be luminescence substrates for semi-synthetic aequorins”.
For the compound `CC(c1ccccc1)c1nc2c(Cc3ccccc3)[nH]c(-c3ccc(O)cc3)cn-2c1=O` (centres unmarked) [αmeh-CTZ, αmeh-coelenterazine], the melting point was 143 to 145 °C (dec.). In data set [1], the “Maximum emission wavelength λmax (nm)” value came out at 457.0 nm, the “Luminescence capacity 10 secs. (%)” value stood at 19.0%, the “Luminescence activity Imax (%)” value amounted to 15.6% and the “Quality … for Oplophorus luciferase” value was “relatively good luminescence substrates”. At Renilla luciferase, the “Luminescence activity Imax (%)” value is 0.0% and the “Luminescence capacity 10 secs. (%)” value is reported as 0.0%. Moreover, the “Half decay time sec.” value at recombinant apoaequorin [2] worked out at 0.35 s. Further, the “Calcium standard curve” value at recombinant apoaequorin [3] is given as “calcium standard curves can be prepared”. The “Maximum emission wavelength λmax (nm)” value on recombinant apoaequorin [4] is given as 467.5 nm. Also, in the data set with Gaussia luciferase, the “Luminescence activity Imax (%)” value is given as above 0.01% and the “Luminescence capacity 10 secs. (%)” value is recorded as above 0.01%. Further, the “Ability to act as luminescence substrate” value at recombinant apoaequorin [5] is “can be luminescence substrates for semi-synthetic aequorins”.
With `COc1cccc(Cc2nc3c(Cc4ccccc4)[nH]c(-c4ccc(O)cc4)cn-3c2=O)c1` [3meo-CTZ, 3meo-coelenterazine], the melting point is 136 to 140 °C (dec.). In data set [1], the “Maximum emission wavelength λmax (nm)” value amounted to 455.5 nm, the “Luminescence activity and/or capacity compared to known h-CTZ” value is given as “high luminescence activity and/or luminescence capacity”, the “Luminescence capacity 10 secs. (%)” value turned out to be 204.7% and the “Luminescence activity Imax (%)” value came to 189.1%. In addition, in data set [1], the “Quality … for Oplophorus luciferase” value was “relatively good luminescence substrates”. Also, on Renilla luciferase, the “Maximum emission wavelength λmax (nm)” value was determined as 473.5 nm, the “Luminescence activity Imax (%)” value is 26.0%, the “Luminescence capacity 10 secs. (%)” value turned out to be 31.6% and the “Ability to act as substrate for Renilla luciferase” value is “can be substrates for Renilla luciferase”. Further, the “Half decay time sec.” value at recombinant apoaequorin [2] is 0.52 s. The “Calcium standard curve” value on recombinant apoaequorin [3] was “calcium standard curves can be prepared”. For the same compound, on recombinant apoaequorin [4], the “Emission spectra of semi-synthetic aequorins compared with known analogs (FIG. 3)” value is “exhibit different emission spectra from those of known coelenterazine analogs” and the “Maximum emission wavelength λmax (nm)” value came out at 466.0 nm. In the data set on Gaussia luciferase, the “Luminescence activity Imax (%)” value is 3.8% and the “Luminescence capacity 10 secs. (%)” value is given as 3.1%. In addition, on recombinant apoaequorin [5], the “Ability to act as luminescence substrate” value is on record as “can be luminescence substrates for semi-synthetic aequorins”.
Take `O=c1c(Cc2ccc(C(F)(F)F)cc2)nc2c(Cc3ccccc3)[nH]c(-c3ccc(O)cc3)cn1-2` [cf3-CTZ, cf3-coelenterazine]: the melting point is 157 to 161 °C (dec.). For the same compound, in data set [1], the “Maximum emission wavelength λmax (nm)” value came to 450.5 nm, the “Luminescence capacity 10 secs. (%)” value is 68.2%, the “Luminescence activity Imax (%)” value is reported as 49.5% and the “Quality … for Oplophorus luciferase” value is reported as “relatively good luminescence substrates”. Further, at Renilla luciferase, the “Maximum emission wavelength λmax (nm)” value is reported as 474.5 nm, the “Luminescence activity Imax (%)” value amounted to 0.8% and the “Luminescence capacity 10 secs. (%)” value stood at 0.8%. The “Half decay time of luminescence compared with CTZ” value at recombinant apoaequorin [2] (semi-synthetic aequorin (FIG. 2, TABLE 1)) was “longer than CTZ”. The “Half decay time sec.” value at recombinant apoaequorin [2] amounted to 5.95 s. In addition, the “Calcium standard curve” value at recombinant apoaequorin [3] is reported as “calcium standard curves can be prepared”. In addition, on recombinant apoaequorin [4], the “Emission spectra of semi-synthetic aequorins compared with known analogs (FIG. 3)” value is recorded as “exhibit different emission spectra from those of known coelenterazine analogs” and the “Maximum emission wavelength λmax (nm)” value turned out to be 473.5 nm. Besides, in the data set with Gaussia luciferase, the “Luminescence activity Imax (%)” value was determined as 0.8% and the “Luminescence capacity 10 secs. (%)” value was 0.7%. Further, the “Ability to act as luminescence substrate” value at recombinant apoaequorin [5] is given as “can be luminescence substrates for semi-synthetic aequorins”.
As to `O=c1c(Cc2cccc(O)c2)nc2c(Cc3ccccc3)[nH]c(-c3ccc(O)cc3)cn1-2` [3iso-CTZ, 3-isocoelenterazine], the melting point was 160 to 162 °C (dec.). Besides, in data set [1], the “Maximum emission wavelength λmax (nm)” value worked out at 458.0 nm, the “Luminescence activity and/or capacity compared to known h-CTZ” value was “high luminescence activity and/or luminescence capacity”, the “Luminescence capacity 10 secs. (%)” value was found to be 71.8% and the “Luminescence activity Imax (%)” value is 78.2%. For the same compound, in data set [1], the “Quality … for Oplophorus luciferase” value is recorded as “relatively good luminescence substrates”. For the same compound, on Renilla luciferase, the “Maximum emission wavelength λmax (nm)” value amounted to 472.0 nm, the “Luminescence activity Imax (%)” value worked out at 25.7%, the “Luminescence capacity 10 secs. (%)” value came to 27.5% and the “Ability to act as substrate for Renilla luciferase” value was “can be substrates for Renilla luciferase”. Moreover, at recombinant apoaequorin [2], the “Half decay time sec.” value worked out at 0.24 s. For the same compound, the “Calcium standard curve” value at recombinant apoaequorin [3] is “calcium standard curves can be prepared”. On recombinant apoaequorin [4], the “Emission spectra of semi-synthetic aequorins compared with known analogs (FIG. 3)” value is “exhibit different emission spectra from those of known coelenterazine analogs” and the “Maximum emission wavelength λmax (nm)” value was determined as 464.0 nm. In addition, in the data set on Gaussia luciferase, the “Luminescence activity Imax (%)” value was found to be 14.3% and the “Luminescence capacity 10 secs. (%)” value was 7.4%. The “Quality as luminescence substrate for Gaussia luciferase” value with Gaussia luciferase (TABLE 3) is reported as “effective luminescence substrates”. The “Ability to act as luminescence substrate” value at recombinant apoaequorin [5] is listed as “can be luminescence substrates for semi-synthetic aequorins”.

One may read the melting point as the temperature of the solid-liquid transition.
